# According to PMC2653091 (Journal of medicinal chemistry, 2009):
# Read-outs that look alike come from different tables or passages of the source. Where no end group is shown, it is not given here.
# How the values were obtained:
# [1] = tested on: mouse vertical activity; conditions: at doses able to counteract the stimulatory effect of exogenously applied NPS; cited from earlier work
# [2] = tested on: NPSR; conditions: cited from earlier work
# [3] = target: T1, mouse NPSR (Mus musculus, UniProt Q8BZP8); assay: Calcium mobilization in HEK293mNPSR cells, agonist mode; type: cell-based
# T1 sequence (Q8BZP8 1-371): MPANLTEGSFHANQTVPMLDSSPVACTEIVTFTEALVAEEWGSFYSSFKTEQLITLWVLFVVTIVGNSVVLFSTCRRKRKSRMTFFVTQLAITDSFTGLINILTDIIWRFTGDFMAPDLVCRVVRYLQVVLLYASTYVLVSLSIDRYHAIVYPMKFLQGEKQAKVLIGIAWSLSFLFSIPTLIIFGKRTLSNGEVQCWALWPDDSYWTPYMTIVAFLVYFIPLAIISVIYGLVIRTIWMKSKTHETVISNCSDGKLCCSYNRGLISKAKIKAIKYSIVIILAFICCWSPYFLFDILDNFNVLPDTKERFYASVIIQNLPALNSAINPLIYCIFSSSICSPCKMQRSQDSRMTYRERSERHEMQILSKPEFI
compound,measurement,setting,value
"O=C(NCc1ccc(F)cc1)N1CCN2C(=O)OC(c3ccccc3)(c3ccccc3)C2C1 (stereo not drawn) [SHA 68, 3-Oxo-1,1-diphenyl-tetrahydro-oxazolo[3,4-a]pyrazine-7-carboxylic acid 4-fluoro-benzylamide]",Effect per se on mouse vertical activity,[1],selective reduction of mouse vertical activity
same,Pharmacological profile at NPSR,[2]; ref 18,pure antagonist
"SFRNGVGTGMKKTSFQRAKS [NPS, Neuropeptide S]",Emax,"[3]; read-out: Agonist Emax ± sem, SEM",295 ± 22%
[Aib^5]NPS,Pharmacological profile at NPSR,[2]; ref 15,partial agonists
[Ala^3]NPS,Pharmacological profile at NPSR,[2]; ref 17,partial agonist
"[Ala^5]NPS (SFRNAVGTGMKKTSFQRAKS; Neuropeptide S; UniProt P0C0P6 70-89, looked up, variant G5A)",Pharmacological profile at NPSR,"[2]; ref 6, 15",high potency NPSR full agonist
same,Pharmacological profile at NPSR,[2]; ref 15,full agonist
[D-Ala^5]NPS,Pharmacological profile at NPSR,[2]; ref 15,partial agonist
"[Trp^5]NPS (SFRNWVGTGMKKTSFQRAKS; Neuropeptide S; UniProt P0C0P6 70-89, looked up, variant G5W) [Compound 2]",Agonist effect at 10 μM (crc incomplete),"[3]; 10 μM, % over the baseline, HEK293mNPSR",30%
